Measurements reported in patent US5310916A, “Trifunctional agents useful as irreversible inhibitors of A1-adenosine receptors” (The United States of America as represented by the …, priority 1990, dated 1994).
In brackets after ≈: the same amount, converted by molar mass.

Columns and labels:
[1] = Solubility of analogs in pH 7.2 phosphate buffer; assay type: physicochemical; details: aqueous buffer; pH 7.2 phosphate buffer with DMSO, 2-3 h room temperature, absorbance at 310 nm, mean of 3
Procedure: The method for determining the solubilities of the xanthines is detailed in the Experimental Section below.
Solubility of Analogs. To 675 uL of pH 7.2 phosphate buffer was added 25 uL of a DMSO solution (approx. 10 mM) of the xanthine to be assayed. This was stirred for one minutes by a vortex mixer then left at room temperature for 2-3 hours. In each case (except where noted) a fine precipitate resulted which was collected by centrifugation at the end of the waiting period. After the dissolution period, a 100 uL aliquot of the supernatant was added to 1.0 mL of methanol and the absorbance measured at 310 nm using an extinction coefficient of 28,180 for calculating the concentration. Each xanthine was assayed 3 times and the concentration represent the averages of these 3 determinations.

A1-adenosine receptors = target: T1, A1-adenosine receptors (Rattus norvegicus, UniProt P25099); experiment: Competitive binding assay at A1 receptors ([3H]RPIA); details: for Ki: [3H]RPIA, rat brain membranes, read-out: Ki at central rat receptors, A1; for A2/A1 ratio: ratio of Ki values A2/A1
T1 construct: adenosine receptors in rat cerebral cortex membranes was assayed as described; from tissue; b141 says rat striatum
T1 sequence (P25099 1-326): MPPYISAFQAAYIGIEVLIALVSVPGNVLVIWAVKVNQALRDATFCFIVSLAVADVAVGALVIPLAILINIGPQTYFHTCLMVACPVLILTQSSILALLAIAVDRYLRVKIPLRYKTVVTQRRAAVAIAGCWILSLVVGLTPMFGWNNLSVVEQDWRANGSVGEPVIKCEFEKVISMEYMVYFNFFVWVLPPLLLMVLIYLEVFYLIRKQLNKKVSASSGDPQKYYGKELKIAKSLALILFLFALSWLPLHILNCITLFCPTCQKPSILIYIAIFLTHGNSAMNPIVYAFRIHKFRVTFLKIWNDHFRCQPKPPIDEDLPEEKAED
Procedure: Table 4 also indicates the synthesis method used for each compound therein.
(§1) A1 ligand = [^3 H]RPIA, A2 ligand = [^3 H]CGS21680
(§2) Inhibition of binding by a range of concentrations of an adenosine derivative was assessed in triplicate in at least three separate experiments. At least seven different concentrations spanning three orders of magnitude, adjusted appropriate for the IC50 of each compound were used. IC50 values Ci/mmol) or [^3 H]CGS21680. Inhibition of [^3 H]NECA binding of to A2 -adenosine receptors in rat striatal membranes were measured as described, except that 5 mM theophylline was used to define non-specific binding. N^6 -Cyclopentyladenosine was present at 50 nM to inhibit binding of the ligand at A1 -adenosine receptors. IC50 values were converted to Ki -values as described.

A2-adenosine receptors = target: T2, A2-adenosine receptors (Rattus norvegicus, UniProt P30543); experiment: Competitive binding assay at A2 receptors ([3H]CGS21680); details: [3H]CGS21680, rat striatum; read-out: Ki at central rat receptors, A2
T2 construct: adenosine receptors in rat striatal membranes were measured as described; from tissue; host or cells: rat striatal membranes
T2 sequence (P30543 whole entry): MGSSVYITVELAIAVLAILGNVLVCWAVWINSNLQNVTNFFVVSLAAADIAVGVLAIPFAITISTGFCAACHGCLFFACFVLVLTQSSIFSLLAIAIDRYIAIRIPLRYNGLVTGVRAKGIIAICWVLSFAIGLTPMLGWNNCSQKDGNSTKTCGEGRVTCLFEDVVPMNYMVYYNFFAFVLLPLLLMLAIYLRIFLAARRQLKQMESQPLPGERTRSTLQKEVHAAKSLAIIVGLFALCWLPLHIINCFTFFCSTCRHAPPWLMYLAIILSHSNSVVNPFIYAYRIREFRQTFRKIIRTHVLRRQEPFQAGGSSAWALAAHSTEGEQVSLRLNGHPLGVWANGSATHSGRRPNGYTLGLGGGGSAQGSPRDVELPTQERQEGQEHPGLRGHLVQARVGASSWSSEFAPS
Procedure: The Ki values (in nM) for A1 and A2 binding in rat striatum are presented in Table 4 with the relative selectivities expressed as the ratio of Ki values. […] Table 4 also indicates the synthesis method used for each compound therein.
as §1, §2

rat brain A1-receptors = details: prior work; cited from earlier work

Structure (SMILES)	solubility [1]	Ki (A1-adenosine receptors)	A2/A1 ratio (A1-adenosine receptors)	Ki (A2-adenosine receptors)	Ki (rat brain A1-receptors)
CCCn1c(=O)c2[nH]c(-c3ccc(OCC(=O)NCCNC(=S)Nc4cc(N=C=S)cc(C(=O)NCCNC(C)=O)c4)cc3)nc2n(CCC)c1=O [Compound 16, 1,3-Dipropyl-8-(4-(((((2-((((3-(2-acetylaminoethylcarboxamide)-5-isothiocyanatophenyl)amino)thiocarbonyl)amino)ethyl)amino)carbonyl)methyl)oxy)phenyl)xanthine]	> 1000 µM	7.01 ± 0.52 nM	35	247 ± 36 nM	
CCCn1c(=O)c2[nH]c(-c3ccc(OCC(=O)NCCNC(=S)Nc4cc(N=C=S)cc(NC(=S)NCCNc5ccc(N=[N+]=[N-])cc5[N+](=O)[O-])c4)cc3)nc2n(CCC)c1=O		27.3 ± 7.2 nM	31	842 nM	
CCCn1c(=O)c2[nH]c(-c3ccc(OCC(=O)NCCNC(=S)Nc4cc(N=C=S)cc(N=C=S)c4)cc3)nc2n(CCC)c1=O [Compound 23, 1,3-Dipropyl-8-(4-(((((2-((((3,5-diisothiocyanatophenyl)amino)thiocarbonyl)amino)ethyl)amino)carbonyl)methyl)oxy)phenyl)-xanthine]		3.96 ± 0.59 nM	894	3540 ± 936 nM	
CCCn1c(=O)c2[nH]c(-c3ccc(OCC(=O)NCCNC(=S)Nc4cccc(N=C=S)c4)cc3)nc2n(CCC)c1=O [Compound 7]	90.1 ± 0.56 µM (≈ 55.9 µg/mL)	2.39 ± 0.35 nM	144	343 nM	2.4 nM
CCCn1c(=O)c2[nH]c(-c3ccc(OCC(=O)NCCNC(=S)Nc4cc(N=C=S)cc(NC(=S)NCCN(C)C)c4)cc3)nc2n(CCC)c1=O [Compound 24]		77.2 ± 2.5 nM	25	1910 ± 303 nM	
CCCn1c(=O)c2[nH]c(-c3ccc(OCC(=O)NCCNC(=S)Nc4cc(CO)cc(N=C=S)c4)cc3)nc2n(CCC)c1=O [Compound 9, 1,3-Dipropyl-8-(4-(((((2-((((3-hydroxymethyl-5-isothiocyanatophenyl)amino)thiocarbonyl)amino)ethyl)amino)carbonyl)methyl)oxyl)phenyl)xanthine]	10.8 ± 0.03 µM (≈ 7.03 µg/mL)	13.4 ± 2.64 nM	32	433 ± 45 nM	
CCCn1c(=O)c2[nH]c(-c3ccc(OCC(=O)NCCNC(=S)Nc4cc(N=C=S)cc(C(=O)NCCNC(=O)CBr)c4)cc3)nc2n(CCC)c1=O [R' = CONH(CH2)2 NHCOCH2 Br]		15.8 nM	44	688 nM	
CCCn1c(=O)c2[nH]c(-c3ccc(OCC(=O)NCCNC(=S)Nc4cccc(N=C=S)n4)cc3)nc2n(CCC)c1=O [Compound 8, 1,3-Dipropyl-8-(4-(((((2-((((6-isothiocyanatopyrido)amino)thiocarbonyl)amino)ethyl)amino)carbonyl)methyl)oxy)phenyl)xanthine]	17.5 ± 0.06 µM (≈ 10.9 µg/mL)	16.2 ± 1.96 nM	27	432 ± 20 nM	
CCCn1c(=O)c2[nH]c(-c3ccc(OCC(=O)NCCNC(=S)Nc4cc(N=C=S)cc(C(=O)OCC)c4)cc3)nc2n(CCC)c1=O [Compound 11, 1,3-Dipropyl-8-(4-(((((2-((((3-carbethoxy-5-isothiocyanatophenyl)amino)thiocarbonyl)amino)ethyl)amino)carbonyl)methyl)oxyl)phenyl)xanthine]	9.33 ± 0.43 µM (≈ 6.46 µg/mL)	41.6 ± 8.2 nM	19	815 ± 145 nM	
CCCn1c(=O)c2[nH]c(-c3ccc(OCC(=O)NCCNC(=S)Nc4cc(N=C=S)cc(C(=O)OC(=O)c5cc(N=C=S)cc(N=C=S)c5)c4)cc3)nc2n(CCC)c1=O		45 ± 3.5 nM	11	493 ± 200 nM	
CCCn1c(=O)c2[nH]c(-c3ccc(OCC(=O)NCCNC(=S)Nc4cc(N=C=S)cc(NC(=S)NCCNC(=S)Nc5ccc(C(=O)O)c(-c6c7ccc(=O)cc-7oc7cc(O)ccc67)c5)c4)cc3)nc2n(CCC)c1=O [R' = NHCSNH(CH2)2 NHCSNH-fluorescein]		234 ± 32.5 nM	8	1790 nM	
